The target in series [1] is T1, taenia preparation isolated from caecum (Cavia porcellus).
T1 construct: The taenia preparation in a length of about 2 cm was isolated from caecum; from tissue; host or cells: guinea pig taenia caeci (isolated smooth muscle strip)
Kind of series: Calcium antagonistic activity (isolated taenia preparation from caecum, Ca2+ concentration-response in K+-rich solution). It is filed as cell-based. The settings on record: guinea pig taenia caeci; Ca2+-free, K+-rich Ringer-Lock solution, 30±1° C.; CaCl2 cumulatively added; read-out: Calcium antagonistic activity (pA2 values, mean ± standard error) (converted). Here is the method:
Male guinea pigs, weighing 405-500 g, were stunned and bled. The taenia preparation in a length of about 2 cm was isolated from caecum and suspended in an organ bath filled with Ca^2+ -free Ringer-Lock solution (composition, mM: NaCl 154, KCl 5.6, NaHCO3 2.3, glucose 5.5). The bathing solution was maintained at 30±1° C. and bubbled with air. The contractile response was recorded using an isotonic transducer (TD-112S made by Nihon Kohden Co., Ltd.) under a load of 0.5 g.
After sufficient incubation to remove Ca^2+, the bathing solution was replaced by Ca^2+ -free, K^+ -rich Ringer-Lock solution (composition, mM: NaCl 59.6, KCl 100, NaHCO3 2.3, glucose 5.5). An aqueous solution of CaCl2 ([…]) was cumulatively added to the bathing solution every 10 minutes, and a concentration-response curve for Ca^2+ was obtained. After washing out Ca^2+ the same procedure as above was carried out in the presence of each of the test compounds, and the pA2 value of the calcium antagonistic activity was calculated from the difference between the concentration-response curves obtained in the absence and presence of the test compound.
Each of the test compounds was dissolved in 5% ethanol and added to the bathing solution (the final concentration of ethanol was 0.05%).

The next series relates to Mongrel dogs. Kind of series: Coronary vasodilating activity and hypotensive activity in anesthetized dogs. It counts as in vivo, dog. The settings on record: Canis lupus familiaris, iv; for ED15: read-out: Mean systemic blood pressure lowering activity MBP-DD15; for ED75: dose which increases coronary blood flow by 75%, anesthetized mongrel dogs, injected into femoral vein, 0.03 to 0.3 mg/kg, read-out: Coronary blood flow increasing activity CBF-ID75. The procedure: Coronary vasodilating activity was examined by measuring the amount of coronary blood flow as an index. Mongrel dogs weighing 10 to 19 kg were anesthetized by intravenously injecting sodium pentobarbital (30 mg/kg) and thoracotomized at the 5th left intercostal space under artificial ventilation. After incision of the pericardiac membrane, a flow probe was placed at the circumflex banch of the left coronary artery and led to an electromagnetic flow meter (MFV-2100 made by Nihon Kohden Co., Ltd.). The systemic blood pressure of the animals was measured by a pressure transducer (MPU-0.5 made by Nihon Kohden Co., Ltd.) connected to the cannulated left femoral artery. The coronary blood flow and the systemic blood pressure were recorded on a polygraph (RM-85 made by Nihon Kohden Co., Ltd.). Each of the test compounds was dissolved in ethanol/saline solution (1/1, V/V) and injected into the femoral vein.
Each of the test compounds was administered in a dose of 0.03 to 0.3 mg/kg, and doses which increase the coronary blood flow by 75% (CBF-ID75) and decrease the mean systemic blood pressure by 15% (MDP-DD15) were calculated from the regression lines.

Another series is described as follows: Acute toxicity, oral. The note with it: mouse, in vivo, ddY male mice, suspended in 0.5% carboxymethyl cellulose, 7 days.

T1 sequence (O35505 whole entry): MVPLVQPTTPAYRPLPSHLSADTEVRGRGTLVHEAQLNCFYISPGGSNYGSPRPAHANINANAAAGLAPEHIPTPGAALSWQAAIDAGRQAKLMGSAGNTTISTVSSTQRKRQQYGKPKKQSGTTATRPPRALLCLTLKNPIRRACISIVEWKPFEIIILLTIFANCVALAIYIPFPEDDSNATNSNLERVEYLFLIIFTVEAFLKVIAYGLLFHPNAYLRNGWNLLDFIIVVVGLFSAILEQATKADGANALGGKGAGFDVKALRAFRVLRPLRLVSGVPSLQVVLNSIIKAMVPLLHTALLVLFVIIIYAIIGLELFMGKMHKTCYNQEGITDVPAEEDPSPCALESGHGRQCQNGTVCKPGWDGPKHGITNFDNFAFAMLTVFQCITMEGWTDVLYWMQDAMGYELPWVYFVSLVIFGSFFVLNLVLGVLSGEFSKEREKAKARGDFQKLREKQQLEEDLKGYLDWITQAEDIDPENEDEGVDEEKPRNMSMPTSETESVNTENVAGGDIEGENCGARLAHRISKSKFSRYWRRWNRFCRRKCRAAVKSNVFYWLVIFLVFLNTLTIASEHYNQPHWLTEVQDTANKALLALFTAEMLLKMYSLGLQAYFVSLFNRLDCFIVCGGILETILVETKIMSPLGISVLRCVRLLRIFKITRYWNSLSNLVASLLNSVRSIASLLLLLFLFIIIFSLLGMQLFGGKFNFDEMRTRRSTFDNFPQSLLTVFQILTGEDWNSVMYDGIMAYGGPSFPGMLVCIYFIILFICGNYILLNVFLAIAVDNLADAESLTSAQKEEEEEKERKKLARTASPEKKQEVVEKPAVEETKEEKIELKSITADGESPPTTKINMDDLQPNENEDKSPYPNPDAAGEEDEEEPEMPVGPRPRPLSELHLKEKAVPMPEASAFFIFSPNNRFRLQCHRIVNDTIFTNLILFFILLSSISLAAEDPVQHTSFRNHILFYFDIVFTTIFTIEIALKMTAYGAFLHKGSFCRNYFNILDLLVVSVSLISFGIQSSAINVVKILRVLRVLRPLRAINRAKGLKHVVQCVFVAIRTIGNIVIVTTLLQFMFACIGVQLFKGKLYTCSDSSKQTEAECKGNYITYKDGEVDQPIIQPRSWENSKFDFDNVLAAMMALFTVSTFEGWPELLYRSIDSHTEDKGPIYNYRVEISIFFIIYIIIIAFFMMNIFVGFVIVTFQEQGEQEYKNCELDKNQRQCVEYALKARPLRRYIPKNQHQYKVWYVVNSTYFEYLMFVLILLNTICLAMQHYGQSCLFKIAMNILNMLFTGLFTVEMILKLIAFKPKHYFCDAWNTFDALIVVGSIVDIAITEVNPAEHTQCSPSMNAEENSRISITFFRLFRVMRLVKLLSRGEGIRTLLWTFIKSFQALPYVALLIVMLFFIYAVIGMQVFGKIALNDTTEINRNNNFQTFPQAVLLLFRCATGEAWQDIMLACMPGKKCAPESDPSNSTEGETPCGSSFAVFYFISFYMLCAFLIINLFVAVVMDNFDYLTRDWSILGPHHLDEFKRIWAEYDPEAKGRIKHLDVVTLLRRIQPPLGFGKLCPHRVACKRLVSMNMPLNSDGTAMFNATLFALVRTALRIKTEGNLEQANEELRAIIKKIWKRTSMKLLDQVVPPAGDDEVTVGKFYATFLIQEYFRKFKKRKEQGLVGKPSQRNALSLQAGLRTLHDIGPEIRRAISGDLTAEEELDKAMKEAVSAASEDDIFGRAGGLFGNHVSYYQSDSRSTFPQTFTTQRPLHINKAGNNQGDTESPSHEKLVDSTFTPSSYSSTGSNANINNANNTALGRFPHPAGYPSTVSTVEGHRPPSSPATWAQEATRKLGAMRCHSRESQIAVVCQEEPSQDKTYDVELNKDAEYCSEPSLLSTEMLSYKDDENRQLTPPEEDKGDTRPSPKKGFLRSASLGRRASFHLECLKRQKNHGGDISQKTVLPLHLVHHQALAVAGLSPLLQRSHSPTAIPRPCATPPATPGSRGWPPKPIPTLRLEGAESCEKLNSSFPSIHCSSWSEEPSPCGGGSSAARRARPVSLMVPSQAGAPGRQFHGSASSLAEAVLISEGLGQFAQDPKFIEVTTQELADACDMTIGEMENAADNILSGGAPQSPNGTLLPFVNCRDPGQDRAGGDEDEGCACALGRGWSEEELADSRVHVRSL

The LD50 is the dose expected to kill half of the subjects tested. With `CCOP(=O)(Cc1ccc(-c2nc3ccccc3s2)cc1)N1CCCC1=O` (centres unmarked) [Compound 100, Ethyl 4-(benzothiazol-2-yl)benzyl-(2-oxopyrrolidino)phosphinate], in series [1], the Kb is 29.5 nM. In the series with Mongrel dogs, the ED15 amounted to 0.0387 mg/kg and the ED75 stood at 0.044 mg/kg. Also, the 50% lethal dose (LD50) at 168 h in “Acute toxicity, oral” was over 1000 mg/kg.
For `CCOP(=O)(Cc1ccc(-c2nc3ccccc3s2)cc1)N1CCCCC1=O` (centres unmarked) [Compound 101, Ethyl 4-(benzothiazol-2-yl)benzyl-(2-oxopiperidino)phosphinate], the Kb in series [1] was 35.5 nM. In the series with Mongrel dogs, the ED15 is 0.0582 mg/kg and the ED75 is 0.06 mg/kg. In “Acute toxicity, oral”, the median lethal dose (LD50) at 168 h is over 1000 mg/kg.
For `CCOP(=O)(Cc1ccc(-c2nc3ccccc3s2)cc1)N1CCCCCC1=O` (centres unmarked) [Compound 102, Ethyl 4-(benzothiazol-2-yl)benzyl-(2-oxohomopiperidino)phosphinate] the same measures were 34.7 nM, 0.054 mg/kg, 0.0573 mg/kg and over 1000 mg/kg.
For `CCOP(=O)(Cc1ccc(-c2nc3cc(F)ccc3s2)cc1)N1CCCC1=O` (centres unmarked) [Compound 103, Ethyl 4-(5-fluorobenzothiazol-2-yl)benzyl(2-oxopyrrolidino)phosphinate] the same measures were 18.6 nM, 0.0901 mg/kg, 0.0644 mg/kg and over 1000 mg/kg.
Turning to `CCOP(=O)(Cc1ccc(-c2nc3cc(F)ccc3s2)cc1)N1CCCCC1=O` (centres unmarked) [Compound 104, Ethyl 4-(5-fluorobenzothiazol-2-yl)benzyl(2-oxopiperidino)phosphinate], the Kb in series [1] is 20.9 nM. In the series with Mongrel dogs, the ED15 worked out at 0.0629 mg/kg and the ED75 was found to be 0.0647 mg/kg. For the same molecule, the LD50 at 168 h in the series “Acute toxicity, oral” is over 1000 mg/kg.
For `CCOP(=O)(Cc1ccc(-c2nc3cc(F)ccc3s2)cc1)N1CCCCCC1=O` (centres unmarked) [Compound 105, Ethyl 4-(5-fluorobenzothiazol-2-yl)benzyl(2-oxohomopiperidino)phosphinate] the same measures were 18.6 nM, 0.0712 mg/kg, 0.0583 mg/kg and over 1000 mg/kg.
For `CCOP(=O)(Cc1ccc(-c2nc3cc(F)ccc3s2)cc1)N1CCOC1=O` (centres unmarked) [Compound 109, Ethyl 4-(5-fluorobenzothiazol-2-yl)benzyl(2-oxo-1,3-oxazolidino)phosphinate] the same measures were 20.4 nM, 0.0748 mg/kg, 0.0615 mg/kg and over 1000 mg/kg.
The corresponding values for `CCOP(=O)(Cc1ccc(-c2nc3ccccc3s2)cc1)OCC` [Compound A, diethyl 4-(benzothiazol-2-yl)benzylphosphonate, reference compound] are 61.7 nM, 0.158 mg/kg, 0.116 mg/kg and over 1000 mg/kg.
